The text below walks through data of US5571799A, “(2'-5') oligoadenylate analogues useful as inhibitors of host-v5.-graft response” (Basco, Ltd., priority 1994, dated 1996).

Entries after “also recorded” stand apart in the source; their conditions may differ.

Data set [1] has as its system snake venom phosphodiesterase. The experiment in a line: Stability to the action of snake venom phosphodiesterase. The format is in vitro ADME. The procedure: Determination of (2'-5')oligoadenylates and analogues stability to the action of snake venom phosphodiesterase
Upon entering an organism 2'-5'A3 and the analogues are quickly hydrolyzed to monomeric compound(s). Prior to administration of 2'-5'A3 analogues in vivo to animal, it was considered necessary to determine their stability towards snake venom phosphodiesterase in comparison to the parent 2'-5'A3.
The solution of 3 μg of the snake venom phosphodiesterase (Boehringer Mannheim cat. No. 108260) in 30 μl of 0.1 M Tris HCl buffer, containing 0.002 M MgCl2 (pH 8.78) is added to the solution of 4-5·10^-7 M trimer in 100 μl of the same buffer. The solution was left standing at 20° C. At regular intervals, 10 μl samples were taken, heated at 90° C. for 1 minute and preparative thin layer chromatography was performed on the Silufole™ plates, using a 7:1:2 mixture of isopropanol:aqueous ammonia:water.
The spot, corresponding to the initial trimer, was cut out, the substance was extracted with 2 ml of 0.5% solution of the dodecylsulfate sodium salt solution for 2 hours, and the optical density of the solution was determined at 260 nm.

Data set [2] relates to Type I and II herpes virus. The following applies: cited from earlier work.
Data set [3] relates to β-lymphocytes (murine splenocytes) stimulated with lipopolysaccharide. The experiment in a line: In vitro blast-transformation of murine lymphocytes, LPS (β-lymphocyte mitogen), [3H]-thymidine. The format is cell-based, mouse (CBA). Conditions: LPS 0.1 μg/ml; 5 × 10^-6 M; control 27,133. The text has this: (§1) The immune reactions in an organism begins with the division of lymphocytes. In vitro investigation of the lymphocyte blast-transformationreaction under the influence of mitogens makes it possible to use this model system to select chemically synthesized 2'-5'A3 analogues which suppress division of lymphocytes. Using Concanavalin A and lipopolysaccharide as mitogens, the effect of analogues on the division of T- and β-lymphocytes may be investigated.
CBA mice 8-10 weeks old were used for these experiments. A suspension of mouse splenocytes were obtained by gently teasing spleens with forceps. Lymphocytes cultivated in flat-bottomed 96-well plates (Linbro) in RPMI-1640 medium (Flow Lab.) were supplemented with 2 mM 1-glutamine, 10 μg/ml gentamicin, 10^-5 M 2-mercaptoethanol and 10% heat inactivated fetal calf serum (Flow Lab). Cultures were maintained in 5% CO2 at 37° C. One μCi of ^3 H-thymidine (Isotop®) was added to each well 4 hours before the end of the incubation period. Incorporation of ^3 H-thymidine into cellular DNA was determined by liquid scintillation counting using standard techniques. Oligoadenylate was added to the medium at the beginning of culturing to achieve the final concentration.
(§2) (Con A being a mitogen for T-lymphocytes and LPS being a mitogen for β-lymphocytes).

In a further data set the test system is T-suppressors. Put plainly: Immune system of monkeys: T-suppressors, flow cytofluorografic analysis. Format: in vivo, Macaque Rh. monkeys. How it is done: Immunosuppressive activity of the prototype 2'-5'A3 and two analogues (2'-5')A2 Ar-epoxy and (2'-5')A2 A^l-epoxy were investigated in monkeys. The experiments were performed on 4 year-old Macaque Rh. monkeys. The levels of the principal subpopulations of T-lymphocytes, IgA, IgG, IgM and the amount of α- and γ-interferon and interleukin II after administration (2'-5')olygoadenylate and its analogies at the concentration of 50 and 25 μg/kg of the body weight was investigated.
(§3) FLOW CYTOFLUOROGRAFIC ANALYSIS OF LYMPHOCYTE SUBSETS
(§4) Blood samples (100 μl of whole blood) were placed into a 12×17 tube. To these cells 20 μl of purified monoclonal antibodies were added with specificity for human cytotoxic/suppressor cells anti-Leu-2a (CD8), human helper/inducer anti-Leu-3a (CD4) and FITC conjugated monoclonal antibodies with specificity for natural killer cells-anti-Leu11c (CD16) (Becton Dickinson, San Jose). After 30 minutes incubation on ice, the cells were washed once and 20 μl of goat-antimouse chain phycoerythrin (Sigma P1286) conjugate were added to the tube with anti-Leu-2a and anti-Leu-3a monoclonal antibodies.
(§5) After erythrocyte lysing with FACS lysing solution (Becton Dickinson, San Jose) the cells were analyzed on FACScan flow cytometer (Becton Dickinson, San Jose) with scatter gate set on lymphocyte fraction.

In data set [4] the test system is T-lymphocytes (murine splenocytes) stimulated with Concanavalin A. Put plainly: In vitro blast-transformation of murine lymphocytes, Con A (T-lymphocyte mitogen), [3H]-thymidine. Conditions: Con A 5 μg/ml; 5 × 10^-6 M; control 22,296. Format: cell-based, mouse (CBA).
Description: as §1
CBA mice 8-10 weeks old were used for these experiments. A suspension of mouse splenocytes were obtained by gently teasing spleens with forceps. […] Cultures were maintained in 5% CO2 at 37° C. One μCi of ^3 H-thymidine (Isotop®) was added to each well 4 hours before the end of the incubation period. Incorporation of ^3 H-thymidine into cellular DNA was determined by liquid scintillation counting using standard techniques. Oligoadenylate was added to the medium at the beginning of culturing to achieve the final concentration.
as §2

The test system of a further data set is T-killers and T-helpers. Put plainly: Immunosuppressive activity in vivo in monkeys. Also noted: species or system Macaque Rh. monkeys. Conditions: monkeys, IV, disodium salt. How it is done:
(§6) The experiments were performed on 4 year-old Macaque Rh. monkeys. The levels of the principal subpopulations of T-lymphocytes, IgA, IgG, IgM and the amount of α- and γ-interferon and interleukin II after administration (2'-5')olygoadenylate and its analogies at the concentration of 50 and 25 μg/kg of the body weight was investigated.
as §3, §4, §5

A further data set has as its system T-helpers. Put plainly: Immune system of monkeys: T-helpers, flow cytofluorografic analysis. Format: in vivo, Macaque Rh. monkeys. How it is done:
as §6, §3, §4, §5

As for “Adenylyl (2'-5')adenylyl (2'-5')-9-(2,3-anhydro-β-D-lyxofuranosyl) adenine disodium salt [(2'-5')A2 A^l-epoxy]”, the “T 1/2 (time for optical density of initial trimer to decrease by 50%)” value in data set [1] (20° C., 0.1 M Tris HCl, 0.002 M MgCl2, pH 8.78) was determined as 10.5 h. Also, the “stability / resistance to phosphodiesterase” value in data set [1] (in words) is on record as “significantly more resistant towards hydrolysis by phosphodiesterase”. In data set [2], the “activity against Type I and II herpes virus, in words” value was “active against the Type I and II herpes virus”. Also, the “DNA synthesis at [^3 H]-thymidine [incorporated counts/min.]” value in data set [3] was 10,828 counts/min; in data set [4] it was 15,749 counts/min. In addition, the T-suppressors was determined as 44% in the data set on T-suppressors (Table 8, single IV 25 μg/kg, day 2, control (day before) 53.1); 43.4% in the data set on T-suppressors (Table 8, single IV 25 μg/kg, day 4, control (day before) 53.1); 44% with T-suppressors (Table 9, single IV 50 μg/kg, day 2, control (day before) 42); 43.4% in the data set on T-suppressors (Table 9, single IV 50 μg/kg, day 4, control (day before) 42). In addition, the “immunosuppressive activity, in words” value in the data set with T-killers and T-helpers is “considerably lower than that exhibited by (2'-5')A2 Ar-epoxy; also recorded: exhibit immunosuppressive activity in the in vivo experiments”; with T-killers and T-helpers (listed as (2 -5')A2 A^l-epoxy) it was “strong immunosuppressive activity specifically against T-killers and T-helpers”. For the same substance, the T-helpers is 27% with T-helpers (Table 8, single IV 25 μg/kg, day 2, control (day before) 26.2); 25.3% with T-helpers (Table 8, single IV 25 μg/kg, day 4, control (day before) 26.2); 20.5% in the data set with T-helpers (Table 9, single IV 50 μg/kg, day 2, control (day before) 22); 18.4% with T-helpers (Table 9, single IV 50 μg/kg, day 4, control (day before) 22).
